The molecules below were run against human FPR2 receptor (Homo sapiens (Human), UniProt P25090) (assay: FLIPR Ca+2 response in HEK-Gα16 cells stably expressing the human FPR2 receptor). Conditions: Table 4.
human FPR2 receptor, sequence (P25090 whole entry): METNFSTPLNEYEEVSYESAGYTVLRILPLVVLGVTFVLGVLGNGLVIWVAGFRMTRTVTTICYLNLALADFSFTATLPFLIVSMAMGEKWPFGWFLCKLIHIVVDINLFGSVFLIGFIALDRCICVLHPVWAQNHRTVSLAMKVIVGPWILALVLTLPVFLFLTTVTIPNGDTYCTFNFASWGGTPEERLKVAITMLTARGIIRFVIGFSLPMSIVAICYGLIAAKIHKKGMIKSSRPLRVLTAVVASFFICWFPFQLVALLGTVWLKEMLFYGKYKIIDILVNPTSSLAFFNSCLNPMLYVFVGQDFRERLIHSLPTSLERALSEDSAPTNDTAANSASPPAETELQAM
Assay type: cell-based
Design: FPR2 (% eff): unit not given here
Protocol: FLIPR: HEK-Gα16 cells stably expressing the human FPR2 receptor was utilized. Cells were plated into 384-well poly-D-lysine coated plates at a density of 18,000 cells per well one day prior to use. The growth media was DMEM medium supplemented with 10% fetal bovine serum (FBS), 1% antibiotic-antimycotic, 50 μg/ml hygromycin, and 400 μg/ml geneticin. On the day of the experiment, the cells were washed twice with Hank's Balanced Salt Solution supplemented with 20 mM HEPES (HBSS/hepes buffer). The cells were then dye loaded with 2 μM Fluo-4 diluted in the HBSS/Hepes buffer and incubated at 37° C. for 40 minutes. Extracellular dye was removed by washing the cell plates four times prior to placing the plates in the FLIPR (Fluorometric Imaging Plate Reader, Molecular Devices). Ligands were diluted in HBSS/Hepes buffer and prepared in 384-well microplates. Data for Ca^+2 responses were obtained in relative fluorescence units.
`O=C(Nc1ccc(Br)cc1)[C@@H]1C2CCC([C@@H]1C(=O)O)C21CC1` (single isomer, unassigned) [Compound 44] gave an EC50 of less than 1 nM. For `NC(=O)C1C(C(=O)Nc2ccc(Br)cc2)C2CCC1C21CC1` (single isomer, unassigned; (-)) [Compound 45, (−) N-(4-bromophenyl)spiro[bicyclo [2.2.1]heptane-7,1′-cyclopropane]-2,3-dicarboxamide], the EC50 was less than 1 nM. `O=C(O)CNC(=O)[C@H](Cc1c[nH]c2ccccc12)NC(=O)Nc1ccc(Br)cc1` (stereo in doubt) [Compound 150, {[2-{[(4-bromophenyl)carbamoyl]amino}-3-(1H-indol-3-yl)propanoyl]amino}acetic acid] gave an EC50 of 1.4 nM. Work on `CSc1ccc(NC(=O)C2C(C(=O)O)C3CCC2C32CC2)cc1` (stereo not drawn) [Compound 29, 3-{[4-(methylsulfanyl)phenyl]carbamoyl}spiro[bicyclo[2.2.1]heptane-7,1′-cyclopropane]-2-carboxylic acid] yielded an EC50 of 7 nM.

Same assay, conditions: Table 4; value in brackets, given mostly as fraction
`O=C(O)[C@@H]1C2CCC([C@@H]1C(=O)Nc1ccc(Br)cc1)C21CC1` (relative stereo) [Compound 14, rel-(2R,3S)-3-[(4-bromophenyl)carbamoyl]spiro [bicyclo[2.2.1]heptane-7,1′-cyclopropane]-2-carboxylic acid] was tested, and the “FPR2 (% eff)” value was 0.90. `O=C(Nc1ccc(Br)cc1)[C@@H]1C2CCC([C@@H]1C(=O)O)C21CC1` (single isomer, unassigned) [Compound 44] was tested, and the “FPR2 (% eff)” value was 0.98. With `NC(=O)C1C(C(=O)Nc2ccc(Br)cc2)C2CCC1C21CC1` (single isomer, unassigned; (-)) [Compound 45, (−) N-(4-bromophenyl)spiro[bicyclo [2.2.1]heptane-7,1′-cyclopropane]-2,3-dicarboxamide] the “FPR2 (% eff)” value was 0.91. `O=C(O)CNC(=O)[C@H](Cc1c[nH]c2ccccc12)NC(=O)Nc1ccc(Br)cc1` (stereo in doubt) [Compound 150, {[2-{[(4-bromophenyl)carbamoyl]amino}-3-(1H-indol-3-yl)propanoyl]amino}acetic acid] showed an FPR2 (% eff) of 98. In the case of `CCC1(CCc2ccccc2)NC(=O)N(NC(=O)Nc2ccc(Br)cc2)C1=O` (stereo not drawn) [Compound 1, 1-(4-bromophenyl)-3-[4-ethyl-2,5-dioxo-4-(2-phenylethyl)imidazolidin-1-yl]urea], the “FPR2 (% eff)” value is reported as 0.96. With `CCC[C@H](NC(=O)Nc1ccc(Br)cc1)C(=O)NCC(=O)O` [Compound 2, {[(2S)-2-{[(4-bromophenyl)carbamoyl]amino}pentanoyl]amino}acetic acid] the “FPR2 (% eff)” value was 0.91. `CC[C@H](C)[C@H](NC(=O)Nc1ccc(Br)cc1F)C(=O)O` [Compound 5, (2S,3S)-2-{[(4-bromo-2-fluorophenyl)carbamoyl]amino}-3-methylpentanoic acid] was tested, and the “FPR2 (% eff)” value was 0.96. For `CC(C)C[C@H](NC(=O)Nc1ccc(Br)cc1)C(=O)NC(C)(C)C(=O)O` [Compound 6, 2-{[(2S)-2-{[(4-bromophenyl)carbamoyl]amino}-4-methylpentanoyl]amino}-2-methylpropanoic acid], the “FPR2 (% eff)” value was 0.91. In the case of `CC(C)C[C@H](NC(=O)Nc1ccc(Br)cc1)C(=O)O` [Compound 9, (2S)-2-{[(4-bromophenyl)carbamoyl]amino}-4-methylpentanoic acid], the “FPR2 (% eff)” value is reported as 0.77. `O=C(Nc1ccc(Br)cc1)NC(Cc1ccccc1)C(=O)NC1CCCCNC1=O` (stereo not drawn) [Compound 10, 2-{[(4-bromophenyl)carbamoyl]amino}-N-(2-oxoazepan-3-yl)-3-phenylpropanamide] was tested, and the “FPR2 (% eff)” value was 0.89. For `O=C(O)C1C(C(=O)Nc2ccc(I)cc2)C2C=CC1C21CC1` (stereo not drawn) [Compound 11, 3-[(4-iodophenyl)carbamoyl]spiro [bicyclo[2.2.1]heptane-7,1′-cyclopropane]-5-ene-2-carboxylic acid], the “FPR2 (% eff)” value was 1.00. With `O=C(O)C1C(C(=O)Nc2ccc(Br)cc2)C2C=CC1C21CC1` (stereo not drawn) [Compound 12, 3-[(4-bromophenyl)carbamoyl]spiro [bicyclo[2.2.1]heptane-7,1′-cyclopropane]-5-ene-2-carboxylic acid] the “FPR2 (% eff)” value was 0.97. `CC(=O)c1ccc(NC(=O)Nc2ccc3c(c2)C(=O)N(CCc2c[nH]cn2)C(c2ccc(C#N)cc2)C3)cc1` (stereo not drawn) [Compound 13, 1-(4-acetylphenyl)-3-{3-(4-cyanophenyl)-2-[2-(1H-imidazol-4-yl)ethyl]-1-oxo-1,2,3,4-tetrahydroisoquinolin-7-yl}urea] was tested, and the “FPR2 (% eff)” value was 0.80. For `O=C(O)C1C(C(=O)Nc2ccc(I)cc2)C2CCC1C21CC1` (stereo not drawn) [Compound 15, 3-[(4-iodophenyl)carbamoyl]spiro [bicyclo[2.2.1]heptane-7,1′-cyclopropane]-2-carboxylic acid], the “FPR2 (% eff)” value was 0.87. With `CSc1ccc(NC(=O)Nc2ccc3c(c2)C(=O)N(CCCN)C(c2ccc(C#N)cc2)C3)cc1` (stereo not drawn) [Compound 16, 1-[2-(3-aminopropyl)-3-(4-cyanophenyl)-1-oxo-1,2,3,4-tetrahydroisoquinolin-7-yl]-3-[4-(methylsulfanyl)phenyl]urea] the “FPR2 (% eff)” value was 0.70. For `CSc1ccc(NC(=O)Nc2ccc3c(c2)C(=O)N(CCc2c[nH]cn2)C(c2ccc(C#N)cc2)C3)cc1` (stereo not drawn) [Compound 17, 1-{3-(4-cyanophenyl)-2-[2-(1H-imidazol-4-yl)ethyl]-1-oxo-1,2,3,4-tetrahydroisoquinolin-7-yl}-3-[4-(methylsulfanyl)phenyl]urea], the “FPR2 (% eff)” value was 0.92. In the case of `CS(=O)(=O)c1ccc(NC(=O)Nc2ccc3c(c2)C(=O)N(CCCN)C(c2ccc(C#N)cc2)C3)cc1` (stereo not drawn) [Compound 18, 1-[2-(3-aminopropyl)-3-(4-cyanophenyl)-1-oxo-1,2,3,4-tetrahydroisoquinolin-7-yl]-3-[4-(methylsulfonyl)phenyl]urea], the “FPR2 (% eff)” value is reported as 0.86. For `CS(=O)(=O)c1ccc(NC(=O)Nc2ccc3c(c2)C(=O)N(CCc2c[nH]cn2)C(c2ccc(C#N)cc2)C3)cc1` (stereo not drawn) [Compound 19, 1-{3-(4-cyanophenyl)-2-[2-(1H-imidazol-4-yl)ethyl]-1-oxo-1,2,3,4-tetrahydroisoquinolin-7-yl}-3-[4-(methylsulfonyl)phenyl]urea], the “FPR2 (% eff)” value was 1.00. For `CSc1ccc(NC(=O)Nc2ccc3c(c2)C(=O)N(CCc2c[nH]cn2)C(c2ccco2)C3)cc1` (stereo not drawn) [Compound 23, 1-{3-(furan-2-yl)-2-[2-(1H-imidazol-4-yl)ethyl]-1-oxo-1,2,3,4-tetrahydroisoquinolin-7-yl}-3-[4-(methylsulfanyl)phenyl]urea], the “FPR2 (% eff)” value was 0.83. For `C[S+]([O-])c1ccc(NC(=O)Nc2ccc3c(c2)C(=O)N(CCc2c[nH]cn2)C(c2ccc(F)cn2)C3)cc1` (stereo not drawn) [Compound 24, 1-{3-(5-fluoropyridin-2-yl)-2-[2-(1H-imidazol-4-yl)ethyl]-1-oxo-1,2,3,4-tetrahydroisoquinolin-7-yl}-3-[4-(methylsulfinyl)phenyl]urea], the “FPR2 (% eff)” value was 0.93. In the case of `CS(=O)(=O)c1ccc(NC(=O)Nc2ccc3c(c2)C(=O)N(CCc2c[nH]cn2)C(c2ccc(F)cn2)C3)cc1` (stereo not drawn) [Compound 25, 1-{3-(5-fluoropyridin-2-yl)-2-[2-(1H-imidazol-4-yl)ethyl]-1-oxo-1,2,3,4-tetrahydroisoquinolin-7-yl}-3-[4-(methylsulfonyl)phenyl]urea], the “FPR2 (% eff)” value is reported as 1.0. In the case of `CSc1ccc(NC(=O)Nc2ccc3c(c2)C(=O)N(CCc2c[nH]cn2)C(c2ccc(Cl)o2)C3)cc1` (stereo not drawn) [Compound 27, 1-{3-(5-chlorofuran-2-yl)-2-[2-(1H-imidazol-4-yl)ethyl]-1-oxo-1,2,3,4-tetrahydroisoquinolin-7-yl}-3-[4-(methylsulfanyl)phenyl]urea], the “FPR2 (% eff)” value is reported as 0.81. `CSc1ccc(NC(=O)Nc2ccc3c(c2)C(=O)N(CCc2c[nH]cn2)C(c2ccc(Cl)nc2)C3)cc1` (stereo not drawn) [Compound 28, 1-{3-(6-chloropyridin-3-yl)-2-[2-(1H-imidazol-4-yl)ethyl]-1-oxo-1,2,3,4-tetrahydroisoquinolin-7-yl}-3-[4-(methylsulfanyl)phenyl]urea] was tested, and the “FPR2 (% eff)” value was 0.89. `CSc1ccc(NC(=O)C2C(C(=O)O)C3CCC2C32CC2)cc1` (stereo not drawn) [Compound 29, 3-{[4-(methylsulfanyl)phenyl]carbamoyl}spiro[bicyclo[2.2.1]heptane-7,1′-cyclopropane]-2-carboxylic acid] was tested, and the “FPR2 (% eff)” value was 0.96. With `NC(=O)C1C(C(=O)Nc2ccc(Br)cc2)C2CCC1C21CC1` (stereo not drawn) [Compound 30, N-(4-bromophenyl)spiro[bicyclo[2.2.1]heptane-7,1′-cyclopropane]-2,3-dicarboxamide] the “FPR2 (% eff)” value was 0.96. With `CSc1ccc(NC(=O)Nc2ccc3c(c2)C(=O)N(CCc2c[nH]cn2)C(c2ccc(Cl)cn2)C3)cc1` (stereo not drawn) [Compound 32, 1-{3-(5-chloropyridin-2-yl)-2-[2-(1H-imidazol-4-yl)ethyl]-1-oxo-1,2,3,4-tetrahydroisoquinolin-7-yl}-3-[4-(methylsulfanyl)phenyl]urea] the “FPR2 (% eff)” value was 0.91. With `CS(=O)(=O)c1ccc(NC(=O)Nc2ccc3c(c2)C(=O)N(CCc2c[nH]cn2)C(c2ccc(Cl)cn2)C3)cc1` (stereo not drawn) [Compound 33, 1-{3-(5-chloropyridin-2-yl)-2-[2-(1H-imidazol-4-yl)ethyl]-1-oxo-1,2,3,4-tetrahydroisoquinolin-7-yl}-3-[4-(methylsulfonyl)phenyl]urea] the “FPR2 (% eff)” value was 0.99. With `CSc1ccc(NC(=O)Nc2ccc3c(c2)C(=O)N(CCCN)[C@@H](c2ccc(C#N)cc2)C3)cc1` [Compound 36, (+)1-[(3R)-2-(3-aminopropyl)-3-(4-cyanophenyl)-1-oxo-1,2,3,4-tetrahydroisoquinolin-7-yl]-3-[4-(methylsulfanyl)phenyl]urea] the “FPR2 (% eff)” value was 0.97. `CSc1ccc(NC(=O)C2C(C(N)=O)C3CCC2C3(C)C)cc1` (stereo not drawn) [Compound 37, 7,7-dimethyl-N-[4-(methylsulfanyl)phenyl]bicyclo [2.2.1]heptane-2,3-dicarboxamide] was tested, and the “FPR2 (% eff)” value was 0.85. For `NC(=O)C1C(C(=O)Nc2ccc(I)cc2)C2CCC1C21CC1` (stereo not drawn) [Compound 38, N-(4-iodophenyl)spiro[bicyclo[2.2.1]heptane-7,1′-cyclopropane]-2,3-dicarboxamide], the “FPR2 (% eff)” value was 0.95. `NC(=O)C1C(C(=O)Nc2ccc(I)cc2)C2C=CC1C21CC1` (stereo not drawn) [Compound 39, N-(4-iodophenyl)spiro[bicyclo[2.2.1]heptane-7,1′-cyclopropane]-5-ene-2,3-dicarboxamide] was tested, and the “FPR2 (% eff)” value was 0.90. With `C[S+]([O-])c1ccc(NC(=O)Nc2ccc3c(c2)C(=O)N(CCCNC(=O)OC(C)(C)C)[C@@H](c2ccc(C#N)cc2)C3)cc1` (stereo partly drawn) [Compound 40, (+) tert-butyl {3-[(3R)-3-(4-cyanophenyl)-7-({[4-(methylsulfinyl)phenyl]carbamoyl}amino)-1-oxo-3,4-dihydroisoquinolin-2(1H)-yl]propyl}carbamate] the “FPR2 (% eff)” value was 0.91.
